Laboratory results taken from a melting point compilation (Tetko et al.; mined from patent text by program, amines drawn as free bases though some values may be those of a salt).

In the case of `CCn1ncnc1COc1nc2c(nnn2-c2ccccc2)c2ccccc12`, the melting point is reported as 192 to 195 °C. Compound `N#Cc1ccc(-n2c(N)nc3ccccc32)cc1-c1ccoc1` has a melting point of 140 to 144 °C. Compound `O=C(O)c1ccccc1Nc1ccncc1` has a melting point of 275 to 280 °C. Compound `FC(F)(F)Oc1ccc(-n2cc(CBr)cn2)cc1` has a melting point of 50 to 51 °C. `CCOC(=O)/C(=C/c1ccc(OC)c(OC2CCCC2)c1)c1ccncc1` gave a melting point of 109 to 110 °C. `Fc1ccc(C#CC2=CCN(Cc3coc4ccccc34)CC2)cc1` showed a melting point of 79 to 80 °C. Compound `COC(=NC(=O)c1ccccc1)NC(=O)c1ccccc1` has a melting point of 139 to 141 °C. Work on `Nc1cc(=O)n(CC2CCCCC2)c(=O)n1CC1CCCCC1` yielded a melting point of 138 to 141 °C. For `NNc1ccc2c(=O)n(Cc3ccccc3)cnc2c1`, the melting point was 165 to 169 °C. For `O=c1oc(-c2ccccc2)cc(O)c1C(SCc1ccccc1)c1ccccc1` (centres undefined), the melting point was 189 to 191 °C. For `CC(=O)Oc1ccc(-n2c(-c3ccccc3)cc3c2CCCC3)cc1C(=O)O`, the melting point was 155 to 162 °C. `CCOc1ccc(-c2nc(-c3ccc(OC(C)=O)c(C(=O)O)c3)cs2)cc1OCC` gave a melting point of 178 to 179 °C. In the case of `COc1ccc(SCCCCN2C(=O)c3ccccc3C2=O)cc1`, the melting point is reported as 61 to 62 °C. Compound `Cc1cc(C)c(N2CCCCC2)cc1NS(=O)(=O)C(F)(F)F` has a melting point of 92 to 94 °C. With `O=C1N(Cc2ccccc2OC(F)(F)F)c2ccccc2C12COc1cc3c(cc12)OCO3` (centres undefined) the melting point was 88 to 91 °C. `CNc1cc(NC)nc(NS(=O)(=O)c2ccc(N)cc2)n1` showed a melting point of 262 to 263 °C. For `CC(C)(Cc1ccccc1)C(O)CCN1C(=O)NC(=O)C1CCCCCCC(=O)O` (centres undefined), the melting point was 115 °C. In the case of `COc1ccc(CN2C(=O)C(N)C(=O)N(CC34CC5CC(CC(C5)C3)C4)c3ccccc32)cc1` (centres undefined), the melting point is reported as 223 to 225 °C. In the case of `COc1ccc(C(=O)c2cccc(F)c2)cc1C(=O)O`, the melting point is reported as 200 °C. With `Cc1ccc2cccc3c2c1N(Cc1ccccc1)C3=NCCCn1ccnc1` the melting point was 107 to 109 °C. Work on `COc1cc(Cc2cnc(N)nc2N)cc(OC)c1N` yielded a melting point of 209 to 210 °C. `O=C(O)c1ccc(C(=O)NOCc2ccc3ccccc3c2)cc1` gave a melting point of 241 to 243 °C. Work on `O=C1CCC(CCC(=O)OCc2cccc(Cl)c2)N1` (centres undefined) yielded a melting point of 90 to 91 °C. In the case of `COc1nc(-c2ccccc2)c2ccsc2n1`, the melting point is reported as 160 to 162 °C. With `O=C(Cn1nc(-c2ccccc2O)nc1-c1ccccc1O)NCC(O)CO` (centres undefined) the melting point was 180 to 181 °C. In the case of `c1csc(Cn2ccnc2C2=NCCN2)c1`, the melting point is reported as 101 to 103 °C. In the case of `CC(C)NCC(O)c1ccc(N)c(C#N)c1` (centres undefined), the melting point is reported as 159 to 161 °C. Compound `CC1(O)CC=C2C3CCC4=CC(=O)CCC4C3C(c3ccc(-c4ccoc4)cc3)CC21C` (centres undefined) has a melting point of 198 to 199 °C. For `CC(C)(C)c1cc(C(=O)Nc2cccnc2NC(=O)NC23CC4CC(CC(C4)C2)C3)cc(C(C)(C)C)c1O`, the melting point was 198 to 202 °C. `CCCCSC1(SCCCC)CCC2C3CCC4=CC(=O)C=CC4(C)C3(F)C(O)CC21C` (centres undefined) showed a melting point of 160 to 162 °C. For `CSc1cc2c(cc1C(F)(F)F)N(C(=O)Nc1cccc(C(=O)Nc3ccncc3)c1)CC2`, the melting point was > 200 °C. `O=C(Cc1noc2ccccc12)NS(=O)(=O)c1ccccc1` showed a melting point of 171 to 172 °C. `CC(C)(C)c1ccc(N2C[C@H](Cn3ccnn3)OC2=O)cc1` showed a melting point of 140 to 142 °C. For `CCOC(=O)c1cc(CN2C(=O)C3(COc4cc5c(cc43)OCO5)c3ccccc32)oc1C(F)(F)F` (centres undefined), the melting point was 162 to 164 °C. `CC(C)(C)C(=O)C(Cl)C(=O)Nc1ccccc1` (centres undefined) showed a melting point of 154 °C. `O=C(NC(=O)c1c(Cl)cccc1Cl)Nc1cc(Cl)c(OC(F)(F)C(F)Cl)cc1Cl` (centres undefined) gave a melting point of 198 to 200 °C. `CCCCCC(O)C=CC1C(O)CC(=O)C1CCCCCCC(=O)OCCSS(C)(=O)=O` (centres undefined) gave a melting point of 56 to 58 °C. Compound `CCOC(=O)c1ccc(Br)c(OCC)c1N(CC)S(C)(=O)=O` has a melting point of 43 to 45 °C. With `O=C1N(Cc2nsc(Cl)n2)c2ccccc2C12COc1cc3c(cc12)OCO3` (centres undefined) the melting point was 114 to 116 °C. For `CC(C)c1cc(C(C)C)c(OS(=O)(=O)CC(=O)N(Cc2ccccc2)Cc2ccccc2)c(C(C)C)c1`, the melting point was 107 to 110 °C. With `CN1CC2CC1CN2c1ccc(NC=C2C(=O)NC(=O)c3ccc(I)cc32)cc1` (centres undefined) the melting point was 210 to 211 °C. With `CC1CC(NCC(F)(F)F)=NN1c1ccc(Cl)cc1` (centres undefined) the melting point was 63 to 64 °C. In the case of `COc1ccc(C#Cc2ccc(C=O)cc2)cc1`, the melting point is reported as 106 °C. `CC=Cc1ccccc1Oc1ccc(Oc2ccccc2C=CC)nn1` showed a melting point of 165 to 168 °C. In the case of `CCN1CCN(c2cc3c(cc2F)c(=O)c(C(=O)O)cn3CC)CC1C` (centres undefined), the melting point is reported as 203 to 205 °C. Work on `CC(C)Cn1c(CCCCNC(=O)OC(C)(C)C)nc2c(N)nc3ccccc3c21` yielded a melting point of 165 to 167 °C. In the case of `CCCc1nc(C(C)(C)O)c(C(=O)OCC)n1Cc1ccc(-c2ccccc2C#N)cc1`, the melting point is reported as 92 to 93 °C. In the case of `O=C(Nc1ccc(OCCN2CCOCC2)c2ccccc12)c1cccc(-n2cccc2)c1`, the melting point is reported as 142 to 143 °C. For `COC(=O)CCCC#Cc1cc(C)c2oc(=O)n(C)c2c1`, the melting point was 97 to 98 °C. In the case of `CCc1ncnc(N[C@H]2CS[C@@H](c3ccc(C)cc3)SC2)c1Cl`, the melting point is reported as 138 to 139 °C. With `CCCn1nc(C)c(NC(C)=O)c1C#N` the melting point was 129 to 131 °C. Work on `Cc1ccc(Sc2nc(F)c(C#N)cc2F)cc1` yielded a melting point of 120 to 121 °C. With `CC(NC1(C(=O)O)CCCC1)C(=O)N1CCCC1C(=O)O` (centres undefined) the melting point was 142 to 145 °C. `COc1cc(Cl)nc(NC(=O)NS(=O)(=O)C(C)S(=O)(=O)N2CCCC2)n1` (centres undefined) showed a melting point of 158 to 160 °C. Compound `Cc1cc(O)c(S(=O)(=O)CC(C)C)c(=O)o1` has a melting point of 90 to 91 °C. In the case of `CC(=O)NC1CCN(Cc2cnc3cc(NC(=O)c4ccc(-c5ccc(F)cc5)cc4)ccc3c2)C1` (centres undefined), the melting point is reported as 250 to 253 °C. In the case of `CC1(C)Oc2ccc(C#N)cc2[C@@H](NC(=O)c2ccc(C(F)(F)F)cc2)[C@@H]1O` (relative stereo), the melting point is reported as 225 °C. For `CCC(CC)Nc1cc(C)nc2c1ncn2-c1c(C)cc(C)cc1C`, the melting point was 78 to 80 °C. `COc1cc(-c2n[nH]c(SC)c2C)c(F)cc1Cl` showed a melting point of 95 to 100 °C. For `O=C(c1cc(O)c(O)c(O)c1)c1csc(-c2ccccc2)n1`, the melting point was 175 to 176 °C. Work on `COc1cc(C)cc2c(=O)oc3c(c12)C(=O)c1cccc(O)c1C3=O` yielded a melting point of 282 to 292 °C. For `Cc1cc2c([nH]c1=O)C(=O)c1ccccc1C2=O`, the melting point was > 300 °C. `CN1CCN(c2cccc3c2ccn3S(=O)(=O)c2ccc(F)cc2)CC1` showed a melting point of 151 to 152 °C. `CCOC(=O)CCc1ccc(C(C)(C)C)c(NC(=O)CC2c3ccccc3Oc3ccccc32)c1` showed a melting point of 160 to 162 °C. With `COc1ccc2cc(CC(=O)O)ccc2c1` the melting point was 173 to 174 °C. `O=c1cc(-n2ccnc2)c2cc(C(c3ccc(Cl)cc3)n3ccnc3)ccc2[nH]1` (centres undefined) gave a melting point of 242 °C. Compound `CC(C)Cc1nc2c(N)nc3ccccc3c2n1CCOc1ccccc1` has a melting point of 177 to 178 °C. `CSC(=S)N1Cc2[nH]c3ccccc3c2CC1CCO` (centres undefined) gave a melting point of 166 to 167 °C. With `CCOC(=O)C1=C(C)NC(C=O)=C(C(=O)OCC)C1c1cccc(O)c1` (centres undefined) the melting point was 142 °C. Work on `CCCCCCCCSc1nc(-c2ccccc2)c(-c2ccccc2)[nH]1` yielded a melting point of 133 to 134 °C. Compound `CC(=O)SCC(C)C(=O)N(CC(=O)O)C1CCCCCC1` (centres undefined) has a melting point of 116 to 117 °C. Compound `O=C(O)CCCSc1ccc(C(=O)O)cn1` has a melting point of 185 °C. `CCOC(=O)C(=CNc1ccccc1)C(=O)OCC` showed a melting point of 45 to 46 °C. In the case of `CCN(CC)c1cccc(NC(=O)COC(C)=O)c1C#N`, the melting point is reported as 50 to 51 °C. Compound `COc1cc(OC)n2sc(=NS(=O)(=O)Cc3ccccc3OC(F)F)nc2n1` has a melting point of 151 to 152 °C. Compound `NC(c1cc(-c2ccc(F)cc2)c(-c2ccc(F)cc2)[nH]1)(C(F)(F)F)C(F)(F)F` has a melting point of 88 to 89 °C. Compound `O=C(O)c1ccn(-c2ccc(Cl)cc2)c1` has a melting point of 222 to 224 °C. `CS(=O)(=O)Nc1ccc(C(=O)NCC23CCCN(CCC2)C3)cc1` gave a melting point of 137 to 139 °C. In the case of `Cc1ccc(S(=O)(=O)NC[C@H]2CN3C(=O)C[C@H]3O2)cc1` (racemic), the melting point is reported as 123 to 125 °C. Work on `O=S(=O)(c1ccc(F)cc1)C(c1cc(F)ccc1F)c1cc(NCCO)ncc1Cl` (centres undefined) yielded a melting point of 157 to 158 °C. For `COc1cc(O)c(C(=O)CCc2ccc3occc3c2)cc1C(O)C1OC(C(=O)C(C)C(=O)O)C(O)C(O)C1O` (centres undefined), the melting point was 113 to 114 °C. For `C[C@H](NC(=O)COCCNC(=O)c1ccc(Cl)cc1)C(=O)N[C@H](CCC(=O)OCc1ccccc1)C(N)=O`, the melting point was 141 to 143 °C. For `COCCN1CN(C)C(=O)N(c2nc3c(s2)C(=O)CC(C)(C)C3)C1`, the melting point was 136 to 137 °C. `CCOC(=O)c1cc(C(=O)NC)nc(C(=O)NC)c1NC` gave a melting point of 169 to 170 °C. In the case of `O=C(O)c1ccc(OS(=O)(=O)C(F)(F)F)cc1`, the melting point is reported as 178 to 180 °C. For `CC(C)(C)OC(=O)N1CCN(CCOc2cccc3c2c2cccc4c2n3C(c2ccccc2)CO4)CC1` (centres undefined), the melting point was 72 °C. Work on `NCc1ccsc1CC(=O)O` yielded a melting point of 194 to 195 °C. `CCCn1c(=O)c2[nH]c(/C=C/c3cc(C)c(OC)cc3C)nc2n(CCC)c1=O` gave a melting point of 268 to 269 °C. Work on `Cc1oc(NC(=O)CCl)c(C#N)c1C` yielded a melting point of 114 °C. In the case of `Cc1cc(N(C)C)ccc1C1(N(c2ccc(N(C)C)cc2)c2ccc(N(C)C)cc2)OC(=O)c2ccccc21` (centres undefined), the melting point is reported as 97 to 113 °C. `NC(=O)c1cc2cc(C(O)(C(F)(F)F)C(F)(F)F)ccc2[nH]1` gave a melting point of 262 to 263 °C. With `O=C(O)c1cc(Oc2ccc(Cl)cc2Cl)c(O)cc1Cl` the melting point was 192 to 196 °C. With `N#Cc1nc(N2CCNCC2)nc(N2CCS(=O)CC2)c1Cl` the melting point was 206 to 208 °C. Compound `CCCCC(=O)Nc1ccc(C(F)(F)F)c(-n2nc(CCCC)n(Cc3ccc(-c4ccccc4S(=O)(=O)NC(=O)OC(C)(C)C)cc3F)c2=O)c1` has a melting point of 179 to 182 °C. `CCc1nc(/C=C/c2cn(-c3ccccc3)nc2OCc2ccc(OCc3nc(-c4cccc(CO)c4)oc3C)c(OC)c2)cs1` gave a melting point of 130 to 132 °C. Work on `O=C(Nc1cc(Cl)cc(Cl)c1)c1cnc(Nc2ccccc2)nc1C(F)(F)F` yielded a melting point of 228 to 229 °C. Work on `O=C1CC(c2cccc(-n3ccnn3)c2)=Nc2ccc(C#Cc3ccc(F)cc3)cc2N1` yielded a melting point of 246 to 248 °C. In the case of `OC(c1cc(-c2ccc(F)cc2)c(-c2ccc(F)cc2)[nH]1)(C(F)(F)F)C(F)(F)F`, the melting point is reported as 112 to 113 °C. For `CC1(C)C(=O)Nc2ccc(C3(C#N)C=CC=N3)cc21` (centres undefined), the melting point was 256 to 258 °C.
